Test: In vivo radioactivity biodistribution experiment in normal mice (Example 1, Table 13)
Set-up: species or system ddY mice
Experimental: ^125I-labeled compounds were diluted with 10% ethanol-containing physiological saline. […] After their blood was collected, organs were removed, and the weights and radioactivities thereof were measured.
When any of the aurone derivatives was used, sufficient radioactivity to perform imaging of intracerebral amyloid migrated to the brain from the early stage of injection (1.7-4.6% ID/g). […] It was also shown that, in any of the aurone derivatives, in vivo radioactivity behavior is discharged mainly from the liver to the bile duct and the intestinal tract.

Row | Biodistribution of radioactivity, Blood (2 min after injection) | Biodistribution of radioactivity, Blood (10 min after injection) | Biodistribution of radioactivity, Blood (30 min after injection) | Biodistribution of radioactivity, Blood (60 min after injection) | Biodistribution of radioactivity, Brain (2 min after injection) | Biodistribution of radioactivity, Brain (10 min after injection) | Biodistribution of radioactivity, Brain (30 min after injection) | Biodistribution of radioactivity, Brain (60 min after injection) | Biodistribution of radioactivity, Heart (2 min after injection) | Biodistribution of radioactivity, Heart (10 min after injection) | Biodistribution of radioactivity, Heart (30 min after injection) | Biodistribution of radioactivity, Heart (60 min after injection) | Biodistribution of radioactivity, Intestine (2 min after injection) | Biodistribution of radioactivity, Intestine (10 min after injection) | Biodistribution of radioactivity, Intestine (30 min after injection) | Biodistribution of radioactivity, Intestine (60 min after injection) | Biodistribution of radioactivity, Kidney (2 min after injection) | Biodistribution of radioactivity, Kidney (10 min after injection) | Biodistribution of radioactivity, Kidney (30 min after injection) | Biodistribution of radioactivity, Kidney (60 min after injection) | SMILES | other results
1 | 2.69 (0.29) % injected dose per gram | 1.96 (0.34) % injected dose per gram | 1.48 (0.15) % injected dose per gram | 0.94 (0.25) % injected dose per gram | 1.89 (0.38) % injected dose per gram | 0.69 (0.21) % injected dose per gram | 0.26 (0.04) % injected dose per gram | 0.11 (0.03) % injected dose per gram | 3.80 (0.66) % injected dose per gram | 1.36 (0.66) % injected dose per gram | 0.55 (0.29) % injected dose per gram | 0.45 (0.11) % injected dose per gram | 1.65 (0.35) % injected dose per gram | 5.37 (1.10) % injected dose per gram | 9.50 (1.45) % injected dose per gram | 11.85 (2.70) % injected dose per gram | 7.84 (1.92) % injected dose per gram | 8.31 (3.19) % injected dose per gram | 10.37 (2.34) % injected dose per gram | 4.51 (1.43) % injected dose per gram | CN(C)c1ccc(/C=C2\Oc3ccc([125I])cc3C2=O)cc1 [[^125I]7] | Biodistribution of radioactivity, Liver (2 min after injection): 10.21 (1.87) % injected dose per gram; Biodistribution of radioactivity, Liver (10 min after injection): 7.86 (2.25) % injected dose per gram; Biodistribution of radioactivity, Liver (30 min after injection): 5.60 (0.59) % injected dose per gram; Biodistribution of radioactivity, Liver (60 min after injection): 4.33 (0.76) % injected dose per gram; Biodistribution of radioactivity, Lung (2 min after injection): 4.02 (0.83) % injected dose per gram; Biodistribution of radioactivity, Lung (10 min after injection): 2.44 (0.54) % injected dose per gram; Biodistribution of radioactivity, Lung (30 min after injection): 1.51 (0.41) % injected dose per gram; Biodistribution of radioactivity, Lung (60 min after injection): 1.17 (0.26) % injected dose per gram; Biodistribution of radioactivity, Pancreas (2 min after injection): 3.17 (0.68) % injected dose per gram; Biodistribution of radioactivity, Pancreas (10 min after injection): 1.04 (0.25) % injected dose per gram; Biodistribution of radioactivity, Pancreas (30 min after injection): 0.55 (0.21) % injected dose per gram; Biodistribution of radioactivity, Pancreas (60 min after injection): 0.30 (0.06) % injected dose per gram; Biodistribution of radioactivity, Spleen (2 min after injection): 1.76 (0.28) % injected dose per gram; Biodistribution of radioactivity, Spleen (10 min after injection): 0.81 (0.54) % injected dose per gram; Biodistribution of radioactivity, Spleen (30 min after injection): 0.51 (0.10) % injected dose per gram; Biodistribution of radioactivity, Spleen (60 min after injection): 0.37 (0.11) % injected dose per gram; Biodistribution of radioactivity, Stomach (2 min after injection): 1.21 (0.29) % injected dose per organ; Biodistribution of radioactivity, Stomach (10 min after injection): 1.35 (1.25) % injected dose per organ; Biodistribution of radioactivity, Stomach (30 min after injection): 1.87 (0.79) % injected dose per organ; Biodistribution of radioactivity, Stomach (60 min after injection): 1.51 (1.04) % injected dose per organ
2 | 4.16 (0.98) % injected dose per gram | 2.72 (1.01) % injected dose per gram | 2.84 (1.48) % injected dose per gram | 2.41 (0.70) % injected dose per gram | 3.17 (0.45) % injected dose per gram | 1.22 (0.09) % injected dose per gram | 0.32 (0.02) % injected dose per gram | 0.24 (0.05) % injected dose per gram | 5.07 (0.47) % injected dose per gram | 2.17 (0.34) % injected dose per gram | 0.98 (0.21) % injected dose per gram | 0.84 (0.37) % injected dose per gram | 3.06 (1.11) % injected dose per gram | 6.59 (3.43) % injected dose per gram | 10.34 (4.91) % injected dose per gram | 14.04 (2.87) % injected dose per gram | 9.91 (2.00) % injected dose per gram | 11.44 (2.76) % injected dose per gram | 6.00 (2.14) % injected dose per gram | 3.52 (0.77) % injected dose per gram | CNc1ccc(/C=C2\Oc3ccc([125I])cc3C2=O)cc1 [[^125I]12] | Biodistribution of radioactivity, Liver (2 min after injection): 11.26 (2.81) % injected dose per gram; Biodistribution of radioactivity, Liver (10 min after injection): 9.70 (2.78) % injected dose per gram; Biodistribution of radioactivity, Liver (30 min after injection): 6.11 (2.16) % injected dose per gram; Biodistribution of radioactivity, Liver (60 min after injection): 4.91 (0.72) % injected dose per gram; Biodistribution of radioactivity, Lung (2 min after injection): 6.86 (0.65) % injected dose per gram; Biodistribution of radioactivity, Lung (10 min after injection): 4.44 (0.39) % injected dose per gram; Biodistribution of radioactivity, Lung (30 min after injection): 2.41 (0.66) % injected dose per gram; Biodistribution of radioactivity, Lung (60 min after injection): 2.94 (0.62) % injected dose per gram; Biodistribution of radioactivity, Pancreas (2 min after injection): 4.83 (0.60) % injected dose per gram; Biodistribution of radioactivity, Pancreas (10 min after injection): 1.81 (0.15) % injected dose per gram; Biodistribution of radioactivity, Pancreas (30 min after injection): 0.83 (0.10) % injected dose per gram; Biodistribution of radioactivity, Pancreas (60 min after injection): 0.77 (0.28) % injected dose per gram; Biodistribution of radioactivity, Spleen (2 min after injection): 2.37 (0.41) % injected dose per gram; Biodistribution of radioactivity, Spleen (10 min after injection): 1.28 (0.19) % injected dose per gram; Biodistribution of radioactivity, Spleen (30 min after injection): 0.86 (0.14) % injected dose per gram; Biodistribution of radioactivity, Spleen (60 min after injection): 0.75 (0.17) % injected dose per gram; Biodistribution of radioactivity, Stomach (2 min after injection): 1.30 (0.43) % injected dose per organ; Biodistribution of radioactivity, Stomach (10 min after injection): 2.53 (0.97) % injected dose per organ; Biodistribution of radioactivity, Stomach (30 min after injection): 2.82 (1.88) % injected dose per organ; Biodistribution of radioactivity, Stomach (60 min after injection): 2.26 (0.88) % injected dose per organ
3 | 3.64 (0.78) % injected dose per gram | 4.38 (0.52) % injected dose per gram | 2.87 (0.82) % injected dose per gram | 2.35 (1.38) % injected dose per gram | 4.57 (0.27) % injected dose per gram | 1.51 (0.17) % injected dose per gram | 0.49 (0.06) % injected dose per gram | 0.26 (0.03) % injected dose per gram | 6.77 (0.74) % injected dose per gram | 2.69 (0.45) % injected dose per gram | 1.30 (0.41) % injected dose per gram | 0.98 (0.25) % injected dose per gram | 3.12 (0.85) % injected dose per gram | 5.06 (1.51) % injected dose per gram | 15.47 (5.48) % injected dose per gram | 18.30 (7.21) % injected dose per gram | 10.87 (2.95) % injected dose per gram | 13.12 (4.30) % injected dose per gram | 12.05 (5.44) % injected dose per gram | 4.95 (1.82) % injected dose per gram | Nc1ccc(/C=C2\Oc3ccc([125I])cc3C2=O)cc1 [[^125I]14] | Biodistribution of radioactivity, Liver (2 min after injection): 9.17 (3.45) % injected dose per gram; Biodistribution of radioactivity, Liver (10 min after injection): 8.48 (2.84) % injected dose per gram; Biodistribution of radioactivity, Liver (30 min after injection): 7.64 (2.19) % injected dose per gram; Biodistribution of radioactivity, Liver (60 min after injection): 5.85 (1.09) % injected dose per gram; Biodistribution of radioactivity, Lung (2 min after injection): 9.06 (0.47) % injected dose per gram; Biodistribution of radioactivity, Lung (10 min after injection): 7.01 (0.28) % injected dose per gram; Biodistribution of radioactivity, Lung (30 min after injection): 5.83 (0.55) % injected dose per gram; Biodistribution of radioactivity, Lung (60 min after injection): 5.23 (1.44) % injected dose per gram; Biodistribution of radioactivity, Pancreas (2 min after injection): 4.96 (0.44) % injected dose per gram; Biodistribution of radioactivity, Pancreas (10 min after injection): 2.01 (0.49) % injected dose per gram; Biodistribution of radioactivity, Pancreas (30 min after injection): 1.22 (0.21) % injected dose per gram; Biodistribution of radioactivity, Pancreas (60 min after injection): 0.87 (0.30) % injected dose per gram; Biodistribution of radioactivity, Spleen (2 min after injection): 2.29 (0.36) % injected dose per gram; Biodistribution of radioactivity, Spleen (10 min after injection): 1.64 (0.29) % injected dose per gram; Biodistribution of radioactivity, Spleen (30 min after injection): 0.84 (0.29) % injected dose per gram; Biodistribution of radioactivity, Spleen (60 min after injection): 0.92 (0.07) % injected dose per gram; Biodistribution of radioactivity, Stomach (2 min after injection): 1.59 (0.71) % injected dose per organ; Biodistribution of radioactivity, Stomach (10 min after injection): 2.94 (0.86) % injected dose per organ; Biodistribution of radioactivity, Stomach (30 min after injection): 4.01 (2.29) % injected dose per organ; Biodistribution of radioactivity, Stomach (60 min after injection): 3.49 (2.00) % injected dose per organ

Reference: patent publication US20100003191A1, “AURONE DERIVATIVE-CONTAINING COMPOSITION FOR DIAGNOSIS” (NAGASAKI UNIVERSITY, priority 2006, published 2010)
